From article PMC7156724, “Potent BRD4 inhibitor suppresses cancer cell-macrophage interaction” (Nature Communications, 2020) come the findings set out here.

pIC50: −log10 of the molar value. “And” between values parts separate entries of the source, which are not always exact repeats. Identical values can stand only once.

One test concerns CSF1 mRNA. Description: RT-qPCR of CSF1 mRNA in human ovarian cancer and melanoma cells. It counts as cell-based. Particulars: 50 nM, 48 h.
For test [1], the system named is TMD8 large B cell lymphoma. The test can be described thus: TMD8 large B cell lymphoma model tumor growth. It counts as in vivo, mouse. To be noted: for Tumor volume: n=6, individual animals. The source says: PO, oral administration; QD, once daily; BID, twice daily. b–d Tumor growth curves for A2780 ovarian tumor (n = 5) (b), TMD8 large B cell lymphoma (n = 6) (c), and B16F10 melanoma (n = 5) (d) bearing mice treated with the indicated compounds once daily for 11-21 days. e, f Tumor growth curves for A375 melanoma (n = 6) (e), and patient-derived xenograft (PDX) of melanoma (n = 5) (f) bearing mice treated with the indicated compounds once daily (5 days on, 2 days off) for 21 days. For d–f, NHWD-870 used is NHWD-870-HCl synthesized using Suzuki coupling route. Data are presented as mean ± SEM in (a, b, d, f) and mean + SEM in (c, e). p values were calculated using two-tailed, unpaired t tests. *p < 0.05; **p < 0.01; ***p < 0.001. Source data are provided as a Source Data file.
4–6 weeks old female BALB/c nude mice were used for most experiments, with the exception of 6–8 weeks old female C57BL/6 mice were used for B16F10 experiments, and 6–8 weeks old male BALB/c nude mice and SD rats were used for pharmacokinetic experiments. All animals were purchased from Shanghai SIPPR-Bk Lab Animal Co., Ltd. All animals were housed under a regimen of 12 h light/12 h dark cycles and specific pathogen-free conditions. 5×10^6 NCI-H526, ES-2, MDA-MB231, A2780, A375, B16F10, and TMD-8 cells (0.1 ml) were injected subcutaneously into female nude mice. The melanoma patient-derived xenograft model was derived from a human melanoma sample (BRAF, NARS and NF1 wild type, and p53 mutant) removed from a patient in Xiangya Hospital. Surgically removed tumor fragments were implanted subcutaneously into female NSG mice. When the tumors grew to ~1000 mm^3, they were harvested and cryopreserved or immediately re-implanted for expansion or experiments. Mouse body weight and tumor sizes were measured every 3 days. Once the tumors grew to 150–200 mm^3, mice were treated with the compounds as described in the Figures. 1 × 10^6 A2780 cells (1 ml) were injected into the abdominal cavity of nude mice. Ascitic volume and tumor weight were measured by an electronic balance. All the procedures were evaluated and approved by the Institutional Animal Care and Use Committee of Central South University and Yale University.

For test [2], the target named is T1, human Ether-à-go-go related gene (hERG) channel (Homo sapiens, UniProt Q12809).
T1 construct: host or cells: HEK293, stably transfected, expression induced with doxycycline
Description: hERG channel assay, manual patch-clamp. It counts as cell-based. Particulars: HEK293 cells stably transfected with hERG, read-out: IC50, inhibition of hERG channel. As for the experimental part: calculated concentration on the dialysate side of the membrane; T0 = To t a l compound concentration as determined before dialysis. Good plasma stability should have a value of not less than 80% bound, and the recovery rate should be […]
9. In vivo pharmacokinetics study. Mouse and SD rat models were used to evaluate pharmacokinetic property of NHWD-870. NHWD-870 was administrated by either intravenous injection (IV, 1.75 mg/kg for mouse and 1 mg/kg for rat) or oral gavage (PO, 5 mg/kg) into mice or rats. Concentration of drugs in plasma, lung and tumor tissues were measured for the indicated time.
10. hERG channel assay. The potential inhibitory effect of NHWD-870 on human Ether-à-go-go related gene (hERG) channel was evaluated by manual patch-clamp system using the protocols described below. HEK293 cell line stably
In general terms: The hERG channel carries a current that helps repolarise heart muscle cells.

Another test has as its system TAMs. Description: Transwell co-culture of pretreated A2780 cells and TAMs with CSF1 or anti-CSF1R antibodies. It counts as cell-based, mouse. To be noted: co-culture with pretreated A2780 cells, MCSF-1 10ng/ml where added. As for the experimental part: Fig. 6 CSF1/CSF1R signaling is critical for the tumor inhibitory effects of NHWD-870 and CSF1 induced ovarian cancer growth depends on macrophages. a Number of TAMs after treatment with the indicated concentration of CSF1 for 48 h. Data are presented as mean ± SEM from three independent experiments. b–d Schematics of the experiments (b). A2780 cells (pre-treated with DMSO or 100 nM NHWD-870 for 48 h) were seeded into the top chamber (transwell size: 0.4 μm), and TAMs (Mac, 40,000 cells per 24-well) in medium with PBS or 10 ng/ml CSF1 (c), or 50 ng/ml IgG or anti-CSF1R antibodies (d), were seeded into the bottom chamber. Shown are quantification of TAMs (c, d). Data are presented as mean ± SEM from three independent experiments. e Representative western blot analysis of A2780 cells stably transfected with CSF1 or empty vector (EV). Selected from three independent experiments. f Schematics of the animal experiments using an orthotopic mouse OC model, established by intraperitoneally injecting 1 × 10^6 (g–j) or 2 × 10^6 (k–m) human A2780 cells overexpressing CSF1 or control into female recipient nude mice. Mice were then treated with/without liposomal clodronate (LC) for 45 days (g–j) or treated with/without NHWD-870 (PO, QD, 3 mg/kg) for 37 days (k–m). g Increased mouse body weight was measured at the indicated time points (day 0-45 after LC treatment). h–j Net tumor weight (h), ascitic fluid volumes (i) tumor implantations in peritoneum, omentum and pevic cavity (j) were measured at day 45 from LC treatment. k–m Net tumor weight (k), ascitic fluid volumes (l) tumor implantations in peritoneum, omentum and pevic cavity (m) were measured at day 37 after NHWD-870 treatment. For g–m, data are presented as mean ± SEM from five different mice. p values were calculated using two-tailed, unpaired t tests in this figure. n.s, not significant; *p < 0.05; **p < 0.01; and ***p < 0.001. Source data are provided as a Source Data file.
CD45^+CD11b^+F4/80^+ TAMs were isolated from peritoneal metastasis of A2780 tumor-bearing mice and cultured in RPMI-1640 supplemented with 10% FBS, 1% penicillin/streptomycin, and 0–50 ng/ml CSF1 (R&D Systems) as indicated according to standard protocols. In the cancer cell-macrophage co-culture experiments, CSF1 was not added. In the transwell (Corning, pore size, 0.4 μm) co-culture experiments, tumor cells were placed into the upper chamber, and TAMs were seeded into the lower chamber.

T1 sequence (Q12809 whole entry): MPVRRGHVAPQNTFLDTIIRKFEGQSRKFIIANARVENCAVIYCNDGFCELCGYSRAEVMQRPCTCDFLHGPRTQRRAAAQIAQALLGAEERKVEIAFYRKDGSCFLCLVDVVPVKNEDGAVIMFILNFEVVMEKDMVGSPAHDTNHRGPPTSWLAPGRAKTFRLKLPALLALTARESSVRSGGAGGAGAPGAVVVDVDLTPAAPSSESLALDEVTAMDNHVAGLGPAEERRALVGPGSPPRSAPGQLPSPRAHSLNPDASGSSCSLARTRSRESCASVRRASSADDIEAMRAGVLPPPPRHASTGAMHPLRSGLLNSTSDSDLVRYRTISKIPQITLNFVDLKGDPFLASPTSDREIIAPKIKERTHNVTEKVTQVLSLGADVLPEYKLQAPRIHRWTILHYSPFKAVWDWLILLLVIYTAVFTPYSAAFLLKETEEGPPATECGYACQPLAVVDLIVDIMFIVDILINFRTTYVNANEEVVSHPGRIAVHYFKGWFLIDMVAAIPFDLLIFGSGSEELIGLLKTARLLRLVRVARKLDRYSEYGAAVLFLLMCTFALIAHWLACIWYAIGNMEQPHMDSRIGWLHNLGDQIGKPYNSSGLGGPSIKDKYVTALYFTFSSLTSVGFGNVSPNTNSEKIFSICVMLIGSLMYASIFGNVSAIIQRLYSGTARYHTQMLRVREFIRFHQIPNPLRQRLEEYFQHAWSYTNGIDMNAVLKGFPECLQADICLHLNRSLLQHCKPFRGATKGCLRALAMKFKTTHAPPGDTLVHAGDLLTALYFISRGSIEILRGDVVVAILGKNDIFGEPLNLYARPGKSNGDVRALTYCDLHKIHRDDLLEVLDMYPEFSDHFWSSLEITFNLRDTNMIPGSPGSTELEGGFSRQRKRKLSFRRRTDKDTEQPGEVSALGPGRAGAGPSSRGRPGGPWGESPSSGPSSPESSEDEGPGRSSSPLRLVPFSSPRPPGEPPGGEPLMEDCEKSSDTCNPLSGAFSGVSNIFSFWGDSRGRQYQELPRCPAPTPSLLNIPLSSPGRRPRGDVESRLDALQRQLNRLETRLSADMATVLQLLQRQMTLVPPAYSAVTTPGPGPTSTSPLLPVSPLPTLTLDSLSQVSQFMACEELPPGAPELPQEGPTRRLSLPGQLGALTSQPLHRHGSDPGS

One may read the pIC50 as the negative decadic logarithm of the IC50, by convention in mol/L. On to `Cc1nnn(C)c1-c1cnc2c3c4cnn(C)c4ccc3n([C@H](c3ccccc3)C3CCOCC3)c2c1` [NHWD-870], for which the “relative CSF1 mRNA level” value in the test with CSF1 mRNA (2780 (A2780)) is 0.0041 and 0.006 and 0.005; in the test on CSF1 mRNA (YUAME), 0.0004 and 0.0005 and 0.0003. Also, the Tumor volume in test [1] (Fig.3c TMD-8, 1.5mg/kg p.o. QD x 21D, day 0) is 214.469 mm^3 and 165.444 mm^3 and 94.318 mm^3 and 104.496 mm^3 and 146.158 mm^3 and 140.975 mm^3; in test [1] (Fig.3c TMD-8, 1.5mg/kg p.o. QD x 21D, day 3), 338.876 mm^3 and 252.047 mm^3 and 100.523 mm^3 and 149.534 mm^3 and 223.518 mm^3 and 132.449 mm^3; in test [1] (Fig.3c TMD-8, 1.5mg/kg p.o. QD x 21D, day 7) it was 459.258 mm^3 and 449.651 mm^3 and 146.864 mm^3 and 132.276 mm^3 and 263.192 mm^3 and 174.278 mm^3; in test [1] (Fig.3c TMD-8, 1.5mg/kg p.o. QD x 21D, day 10) it was 490.697 mm^3 and 432.678 mm^3 and 235.012 mm^3 and 190.412 mm^3 and 150.967 mm^3 and 163.029 mm^3; in test [1] (Fig.3c TMD-8, 1.5mg/kg p.o. QD x 21D, day 14), 640.246 mm^3 and 434.37 mm^3 and 213.016 mm^3 and 174.551 mm^3 and 71.2181 mm^3 and 175.498 mm^3; in test [1] (Fig.3c TMD-8, 1.5mg/kg p.o. QD x 21D, day 17), 730.308 mm^3 and 597.229 mm^3 and 374.112 mm^3 and 196.792 mm^3 and 127.555 mm^3 and 127.945 mm^3. The Tumor volume in test [1] (Fig.3c TMD-8, 1.5mg/kg p.o. QD x 21D, day 21) is 1151.12 mm^3 and 1193.19 mm^3 and 830.854 mm^3 and 339.119 mm^3 and 375.477 mm^3 and 217.147 mm^3; in test [1] (Fig.3c TMD-8, 3mg/kg p.o. QD x 21D, day 0) it was 135.749 mm^3 and 160.378 mm^3 and 111.097 mm^3 and 215.602 mm^3 and 96.5 mm^3 and 162.39 mm^3; in test [1] (Fig.3c TMD-8, 3mg/kg p.o. QD x 21D, day 3) it was 210.016 mm^3 and 166.954 mm^3 and 177.118 mm^3 and 367.777 mm^3 and 150.727 mm^3 and 208.299 mm^3; in test [1] (Fig.3c TMD-8, 3mg/kg p.o. QD x 21D, day 7), 347.833 mm^3 and 254.452 mm^3 and 292.586 mm^3 and 297.998 mm^3 and 182.149 mm^3 and 258.854 mm^3; in test [1] (Fig.3c TMD-8, 3mg/kg p.o. QD x 21D, day 10), 278.167 mm^3 and 325.57 mm^3 and 336.135 mm^3 and 344.695 mm^3 and 159.095 mm^3 and 292.996 mm^3; in test [1] (Fig.3c TMD-8, 3mg/kg p.o. QD x 21D, day 14), 177.492 mm^3 and 209.22 mm^3 and 327.654 mm^3 and 243.833 mm^3 and 100.203 mm^3 and 228.258 mm^3. Besides, the Tumor volume in test [1] (Fig.3c TMD-8, 3mg/kg p.o. QD x 21D, day 17) was 203.37 mm^3 and 180.739 mm^3 and 317.134 mm^3 and 320.512 mm^3 and 84.6294 mm^3 and 268.501 mm^3; in test [1] (Fig.3c TMD-8, 3mg/kg p.o. QD x 21D, day 21), 566.866 mm^3 and 363.185 mm^3 and 475.409 mm^3 and 503.514 mm^3 and 313.1 mm^3 and 324.211 mm^3. Besides, the “effect on tumor growth” value in test [1] (TMD8 large B cell lymphoma model, compared with Ibrutinib) was “stronger tumor-suppressive effects”. Further, the pIC50 in test [2] is 5.27. The “Number of TAMs (Fig.6c)” value is 5 with TAMs (time 0); 5.5 and 5.2 and 6.2 with TAMs (time 24); 6.8 and 6.3 and 7.4 in the test with TAMs (time 48); 8.9 and 9.5 and 8.5 in the test on TAMs (time 72).
